# Data as given in patent US20240189221A1, “METHODS AND FORMULATIONS FOR TREATING VASCULAR DISEASE” (ENDOPERFUSION SOLUTIONS, LLC, priority 2015, published 2024).
# System: Human artery smooth muscle cells
# Assay: Smooth muscle cell proliferation (cell count by flow cytometry)
# Assay type: cell-based
# Conditions: 0.01-1 μM, 48 h; FIG. 6, FIG. 7A
# Method: Human artery smooth muscle cells were seeded at 20,000 cells per well on 24-well plates (3 wells per condition) in growth medium and allowed to adhere overnight at 37° C. […] Cells were washed with PBS, trypsinized, and counted using a flow cytometer (Beckman-Coulter FC500).
structure (smiles),measurement,value
"COCc1c(C(C)C)nc(C(C)C)c(/C=C/[C@@H](O)C[C@@H](O)CC(=O)O)c1-c1ccc(F)cc1 [free cerivastatin, (3R,5S,6E)-7-[4-(4-fluorophenyl)-5-(methoxymethyl)-2,6-bis(propan-2-yl)pyridin-3-yl]-3,5-dihydroxyhept-6-enoic acid]",proliferation of SMCs,inhibits the proliferation of SMCs
